For orientation: melting point means the temperature, or range, at which the solid turns liquid.

In turn, `O=c1[nH]c2cc(C(F)(F)F)c(S(=O)(=O)N3CCCCC3)cc2cc1P(=O)(O)O` [Example 32, 2-Oxo-6-(1-piperidylsulphonyl)-7-(trifluoromethyl)-1,2-dihydro-3-quinolylphosphonic Acid] came in with a melting point greater than 260 °C.
